Data taken from doi:10.1101/2021.10.07.463234v2 (biorxiv, 2021).
Where a name gives a salt, the structure may show the parent alone.

target: SARS-CoV-2 Mac1 (Severe acute respiratory syndrome coronavirus 2, UniProt P0DTD1); experiment: biochemical; settings: 100 µM; inhibitor

| SMILES | %inhibition |
| --- | --- |
| CCN(C)C(=O)Oc1cccc([C@H](C)N(C)C)c1 [Rivastigmine Tartrate] | 0.5521% |
| CCN(C)C(=O)Oc1cccc([C@H](C)N(C)C)c1 [Rivastigmine] | 0% |
| CN(CCOc1ccc(CC2SC(=O)NC2=O)cc1)c1ccccn1 (centres unmarked) [Rosiglitazone HCl] | 0% |
| CN(CCOc1ccc(CC2SC(=O)NC2=O)cc1)c1ccccn1 (centres unmarked) [Rosiglitazone maleate] | 9.239% |
| CN(CCOc1ccc(CC2SC(=O)NC2=O)cc1)c1ccccn1 (centres unmarked) [Rosiglitazone] | 18.44% |
| CC(C)c1nc(N(C)S(C)(=O)=O)nc(-c2ccc(F)cc2)c1/C=C/[C@@H](O)C[C@@H](O)CC(=O)O [Rosuvastatin Calcium] | 0% |
| CC(C)c1nc(N(C)S(C)(=O)=O)nc(-c2ccc(F)cc2)c1/C=C/[C@@H](O)C[C@@H](O)CC(=O)O [Rosuvastatin] | 7.223% |
| N#CC[C@H](C1CCCC1)n1cc(-c2ncnc3[nH]ccc23)cn1 [Ruxolitinib (INCB018424)] | 0% |
| N#CC[C@H](C1CCCC1)n1cc(-c2ncnc3[nH]ccc23)cn1 [S-Ruxolitinib (INCB018424)] | 18.93% |
| C[C@H](NCc1ccc(OCc2cccc(F)c2)cc1)C(N)=O [Safinamide Mesylate] | 9.23% |
| CC(C)(C)NCC(O)c1ccc(O)c(CO)c1 (centres unmarked) [Salbutamol Sulfate] | 6.444% |
| CC(C)(C)NCC(O)c1ccc(O)c(CO)c1 (centres unmarked) [Salbutamol] | 0% |
| O=C(O)c1ccccc1O [Salicylic acid] | 1.324% |

same assay, conditions: read-out: %inhibition

| SMILES | inhibition at 100 µM |
| --- | --- |
| CO[C@H]1/C=C/O[C@@]2(C)Oc3c(C)c(O)c4c(O)c(c5c(nc6cc(C)ccn65)c4c3C2=O)NC(=O)/C(C)=C\C=C\[C@H](C)[C@H](O)[C@@H](C)[C@@H](O)[C@@H](C)[C@H](OC(C)=O)[C@@H]1C [Rifaximin] | 22.3% |
| COc1cc(OC)c(/C=C/S(=O)(=O)Cc2ccc(OC)c(NCC(=O)O)c2)c(OC)c1 [Rigosertib (ON-01910)] | 0.0877% |
| Cc1cc(/C=C/C#N)cc(C)c1Nc1ccnc(Nc2ccc(C#N)cc2)n1 [Rilpivirine] | 7.83% |
| Nc1nc2ccc(OC(F)(F)F)cc2s1 [Riluzole] | 0% |
| CC(N)[C@]12C[C@H]3C[C@H](C[C@H](C3)C1)C2 (some centres unmarked) [Rimantadine Hydrochloride] | 4.71% |
| CC(N)C12CC3CC(CC(C3)C1)C2 (centres unmarked) [Rimantadine] | 28.1% |
| Cc1c(C(=O)NN2CCCCC2)nn(-c2ccc(Cl)cc2Cl)c1-c1ccc(Cl)cc1 [Rimonabant] | 3.4% |
| COC(=O)N(C)c1c(N)nc(-c2nn(Cc3ccccc3F)c3ncccc23)nc1N [Riociguat (BAY 63-2521)] | 21.9% |
| C[C@H]1CNCCCN1S(=O)(=O)c1cccc2cncc(F)c12 [Ripasudil (K-115) hydrochloride dihydrate] | 23.9% |
| O=P(O)(O)C(O)(Cc1cccnc1)P(=O)(O)O [Risedronate Sodium] | 8.32% |
| CC(C)c1nc(CN(C)C(=O)N[C@H](C(=O)N[C@@H](Cc2ccccc2)C[C@H](O)[C@H](Cc2ccccc2)NC(=O)OCc2cncs2)C(C)C)cs1 [Ritonavir] | 0% |
| O=C(NC[C@H]1CN(c2ccc(N3CCOCC3=O)cc2)C(=O)O1)c1ccc(Cl)s1 [Rivaroxaban] | 4.28% |
| CN(C)CCc1c[nH]c2ccc(Cn3cncn3)cc12 [Rizatriptan Benzoate] | 0% |
| C=CC(=O)Nc1cccc(Nc2nc(Nc3ccc(N4CCN(C(C)=O)CC4)cc3OC)ncc2C(F)(F)F)c1 [Rociletinib (CO-1686, AVL-301)] | 0% |
| C=CC[N+]1([C@H]2C[C@H]3[C@@H]4CC[C@H]5C[C@H](O)[C@@H](N6CCOCC6)C[C@]5(C)[C@H]4CC[C@]3(C)[C@H]2OC(C)=O)CCCC1 [Rocuronium Bromide] | 0% |
| CS(=O)(=O)c1ccc(C2=C(c3ccccc3)C(=O)OC2)cc1 [Rofecoxib] | 12.8% |
| O=C(Nc1c(Cl)cncc1Cl)c1ccc(OC(F)F)c(OCC2CC2)c1 [Roflumilast] | 5.88% |
| COc1ccc(C2CNC(=O)C2)cc1OC1CCCC1 (centres unmarked) [Rolipram] | 0% |
| Cn1c([N+](=O)[O-])cnc1COC(N)=O [Ronidazole] | 0% |
| CCCN(CCC)CCc1cccc2c1CC(=O)N2 [Ropinirole HCl] | 0% |

| SMILES | inhibition at 100 µM |
| --- | --- |
| CCCN1CCCC[C@H]1C(=O)Nc1c(C)cccc1C [Ropivacaine] | 0% |
| CCCN(CCc1cccs1)[C@H]1CCc2c(O)cccc2C1 [Rotigotine] | 6.99% |
| Cc1nc(C(=O)NCC(=O)O)c(O)c2ccc(Oc3ccccc3)cc12 [Roxadustat (FG-4592)] | 14.8% |
| CC[C@H]1OC(=O)[C@H](C)[C@@H](O[C@H]2C[C@@](C)(OC)[C@@H](O)[C@H](C)O2)[C@H](C)[C@@H](O[C@@H]2O[C@H](C)C[C@H](N(C)C)[C@H]2O)[C@](C)(O)C[C@@H](C)/C(=N\OCOCCOC)[C@H](C)[C@@H](O)[C@]1(C)O [Roxithromycin] | 0.445% |
| CNCc1ccc(-c2[nH]c3cc(F)cc4c3c2CCNC4=O)cc1 [Rucaparib (AG-014699,PF-01367338) phosphate] | 10.4% |
| NC(=O)c1cn(Cc2c(F)cccc2F)nn1 [Rufinamide] | 25.2% |
| Cc1cncc(CN2CCC(=C3c4ccc(Cl)cc4CCc4cccnc43)CC2)c1 [Rupatadine Fumarate] | 24.3% |
| C[C@@H]1O[C@@H](OC[C@H]2O[C@@H](Oc3c(-c4ccc(O)c(O)c4)oc4cc(O)cc(O)c4c3=O)[C@H](O)[C@@H](O)[C@@H]2O)[C@H](O)[C@H](O)[C@H]1O [Rutin] | 3.42% |
| COc1ccc([C@H]2CNC(=O)C2)cc1OC1CCCC1 [S- (+)-Rolipram] | 0% |
| O=C1NS(=O)(=O)c2ccccc21 [Saccharin] | 0% |
| C[C@H](NCc1ccc(OCc2cccc(F)c2)cc1)C(N)=O [Safinamide] | 15% |
| CC(C)=CCC/C(C)=C/CC/C(C)=C/CSc1ccccc1C(=O)O [Salirasib] | 0% |
| OCc1cc(C(O)CNCCCCCCOCCCCc2ccccc2)ccc1O (centres unmarked) [Salmeterol] | 3.12% |
| CN1CCN(CCOc2cc(OC3CCOCC3)c3c(Nc4c(Cl)ccc5c4OCO5)ncnc3c2)CC1 [Saracatinib (AZD0530)] | 32.3% |
| O=C(O)c1cn(-c2ccc(F)cc2)c2cc(N3CCNCC3)c(F)cc2c1=O [Sarafloxacin HCl] | 15.7% |
| COc1cccc(CCc2ccccc2OCC(CN(C)C)OC(=O)CCC(=O)O)c1 (centres unmarked) [Sarpogrelate hydrochloride] | 0% |
| N#C[C@@H]1C[C@@H]2C[C@@H]2N1C(=O)[C@@H](N)C12CC3CC(CC(O)(C3)C1)C2 [Saxagliptin hydrate] | 8.79% |
| N#C[C@@H]1C[C@H]2C[C@H]2N1C(=O)[C@@H](N)[C@@]12C[C@@H]3C[C@@H](C[C@@](O)(C3)C1)C2 [Saxagliptin] | 12.8% |
| CN1[C@@H]2C[C@@H](OC(=O)[C@H](CO)c3ccccc3)C[C@H]1[C@@H]1O[C@@H]12 [Scopolamine HBr] | 0% |
| Cc1ncc([N+](=O)[O-])n1CC(C)O (centres unmarked) [Secnidazole] | 34.4% |

| SMILES | inhibition at 100 µM |
| --- | --- |
| CO[C@H]1C[C@H](O[C@@H]2/C(C)=C/C[C@@H]3C[C@@H](C[C@]4(CC[C@H](C)[C@@H](C5CCCCC5)O4)O3)OC(=O)[C@@H]3C=C(C)/C(=N/O)[C@H]4OC/C(=C\C=C\[C@@H]2C)[C@]43O)O[C@@H](C)[C@@H]1O [Selamectin] | 13.4% |
| CC(C)N(CCCCOCC(=O)NS(C)(=O)=O)c1cnc(-c2ccccc2)c(-c2ccccc2)n1 [Selexipag] | 0% |
| O=C(/C=C\n1cnc(-c2cc(C(F)(F)F)cc(C(F)(F)F)c2)n1)NNc1cnccn1 [Selinexor (KPT-330)] | 0% |
| NC(=O)C1CCCc2c1[nH]c1ccc(Cl)cc21 (centres unmarked) [Selisistat (EX 527)] | 15.7% |
| Cn1cnc2c(F)c(Nc3ccc(Br)cc3Cl)c(C(=O)NOCCO)cc21 [Selumetinib (AZD6244)] | 24.4% |
| CC(C)[C@H](O)C(=O)N[C@@H](C)C(=O)N[C@@H]1C(=O)N(C)CCc2ccccc21 [Semagacestat (LY450139)] | 0% |
| NCCc1c[nH]c2ccc(O)cc12 [Serotonin HCl] | 8.8% |
| Clc1ccc(C(Cn2ccnc2)OCc2csc3c(Cl)cccc23)c(Cl)c1 (centres unmarked) [Sertaconazole nitrate] | 0% |
| CCCc1nn(C)c2c(=O)[nH]c(-c3cc(S(=O)(=O)N4CCN(C)CC4)ccc3OCC)nc12 [Sildenafil Citrate] | 0% |
| COc1cc([C@H]2Oc3cc([C@H]4Oc5cc(O)cc(O)c5C(=O)[C@@H]4O)ccc3O[C@@H]2CO)ccc1O [Silibinin] | 0% |
| O=C(O)c1ccc2c(c1)nc(Nc1cccc(Cl)c1)c1ccncc12 [Silmitasertib (CX-4945)] | 0% |
| C[C@H](Cc1cc2c(c(C(N)=O)c1)N(CCCO)CC2)NCCOc1ccccc1OCC(F)(F)F [Silodosin] | 0% |
| COc1ccc2c(O[C@@H]3C[C@H]4C(=O)N[C@]5(C(=O)NS(=O)(=O)C6CC6)C[C@H]5/C=C\CCCCN(C)C(=O)[C@@H]4C3)cc(-c3nc(C(C)C)cs3)nc2c1C [Simeprevir] | 11.4% |
| CCC(C)(C)C(=O)O[C@H]1C[C@@H](C)C=C2C=C[C@H](C)[C@H](CC[C@@H]3C[C@@H](O)CC(=O)O3)[C@H]21 [Simvastatin] | 14% |
| CN[C@@H]1[C@@H](O)[C@@H](O[C@@H]2[C@@H](O)[C@H](O[C@H]3OC(CN)=CC[C@H]3N)[C@@H](N)C[C@H]2N)OC[C@]1(C)O [Sisomicin sulfate] | 0% |
| N[C@@H]1CN(c2c(F)cc3c(=O)c(C(=O)O)cn([C@@H]4C[C@@H]4F)c3c2Cl)CC12CC2 [Sitafloxacin Hydrate] | 5.2% |
| N[C@@H](CC(=O)N1CCn2c(nnc2C(F)(F)F)C1)Cc1cc(F)c(F)cc1F [Sitagliptin] | 0% |
| CC(C)(C)C(=O)Oc1ccc(S(=O)(=O)Nc2ccccc2C(=O)NCC(=O)O)cc1 [Sivelestat (ONO-5046)] | 0% |
